The results in this text go back to patent US20240409585A1, “MACROCYCLIC IMMUNOMODULATORS” (priority 2021, published 2024).

The target of assay [1] is T1, PE-labeled human PD-L1-Ig binding to Jurkat cell line over-expressing human PD-1 (Jurkat-PD-1) (Homo sapiens, UniProt Q15116).
T1 construct: expressed in transfected cells; host or cells: Jurkat
Description: Jurkat-PD-1 Cell Binding High-Content Screening Assay (CBA): Method 1. To be noted: Jurkat-PD-1 cells, PE-labeled PD-L1-Ig.

The target in assay [2] is T1, PE-labeled human PD-L1-Ig binding to Jurkat cell line over-expressing human PD-1 (Jurkat-PD-1). As to the kind of experiment: Jurkat-PD-1 Cell Binding High-Content Screening Assay (CBA): Method 2 (presence and absence of tween-20). To be noted: Jurkat-PD-1 cells, PE-labeled PD-L1-Ig 20 nM, presence or absence of tween-20 not given. As for the experimental part:
Jurkat-PD-1 Cell Binding High-Content Screening Assay (CBA): Method 2
Phycoerythrin (PE) was covalently linked to the Ig epitope tag of human PD-L1-Ig and fluorescently labeled PD-L1-Ig was used for binding studies with a Jurkat cell line over-expressing human PD-1 (Jurkat-PD-1). […] 100 nl of compound was added to cells followed by incubation at 37° C. for 2 hours. To interrogate potential issues with compound aggregation, compounds were tested in the presence and absence of tween-20 detergent. […] Then, 5 μl of PE-labeled PD-L1-Ig (20 nM final), diluted in DMEM supplemented with 10% fetal calf serum. […] Data was collected and processed using a Cell Insight NXT High Content Imager and associated software.

The mark [3] stands for this setting: head μM, read-out: CBA Method 2 μM.

Numbered stars: 1 amine (or outer) side, 2 acyl side, 3 side chain; on linkers, the order of the positions; unused ones are H or OH. Bridge positions count the residues as written; N and C are the ends. Square brackets hold non-standard residues; d marks the D form. Peptide text beside a SMILES is read from it. * marks the point of attachment. ξ: configuration not given here. Bip(4'-COOH) = N[C@@H](Cc1ccc(-c2ccc(C(=O)O)cc2)cc1)C(=O)O; Bip(4'-NHAc) = CC(=O)Nc1ccc(-c2ccc(C[C@H](N)C(=O)O)cc2)cc1; Phe(3-CF3) = N[C@@H](Cc1cccc(C(F)(F)F)c1)C(=O)O; X3 = CC(=O)NCc1cccc(C[C@H](N[*:1])C(=O)[*:2])c1; Ala(morpholin-4-yl) = N[C@@H](CN1CCOCC1)C(=O)O; Phe(4-CONH2) = NC(=O)c1ccc(C[C@H](N)C(=O)O)cc1; Phe(4-COOH) = N[C@@H](Cc1ccc(C(=O)O)cc1)C(=O)O; Bip = N[C@@H](Cc1ccc(-c2ccccc2)cc1)C(=O)O; Phe(3-CN) = N#Cc1cccc(C[C@H](N)C(=O)O)c1; Phe(3-NH2) = Nc1cccc(C[C@H](N)C(=O)O)c1; Phe(3-F) = N[C@@H](Cc1cccc(F)c1)C(=O)O; Phe(3-Me) = Cc1cccc(C[C@H](N)C(=O)O)c1; Val(3-OH) = CC(C)(O)[C@H](N)C(=O)O; X11 = CC(N)[C@H](N[*:1])C(=O)[*:2]; 2Pal = N[C@@H](Cc1ccccn1)C(=O)O; Cha = N[C@@H](CC1CCCCC1)C(=O)O; Thr(3ξ) = CC(O)[C@H](N)C(=O)O; Carboxymethyl = O=C(O)C*; NMeA = CN[C@@H](C)C(=O)O; Nle = CCCC[C@H](N)C(=O)O; Orn = NCCC[C@H](N)C(=O)O; Dab = NCC[C@H](N)C(=O)O

T1 sequence (Q15116 25-288): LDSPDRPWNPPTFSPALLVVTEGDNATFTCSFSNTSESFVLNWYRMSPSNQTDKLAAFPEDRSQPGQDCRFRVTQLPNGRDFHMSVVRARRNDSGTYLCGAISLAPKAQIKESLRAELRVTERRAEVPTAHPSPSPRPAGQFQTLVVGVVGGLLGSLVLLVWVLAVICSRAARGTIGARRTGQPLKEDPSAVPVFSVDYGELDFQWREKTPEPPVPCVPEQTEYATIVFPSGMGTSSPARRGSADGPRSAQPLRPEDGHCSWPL

In the case of `CC(=O)NCc1cccc(C[C@@H]2NC(=O)CSC[C@@H](C(=O)N[C@@H](CCN)C(N)=O)NC(=O)[C@H](CCCN)NC(=O)[C@H](C(C)C)NC(=O)[C@H](CC3CCCCC3)NC(=O)[C@H](CCN)NC(=O)[C@@H](CC(C)C)NC(=O)[C@H](C)N(C)C(=O)[C@H](CCC(N)=O)NC(=O)[C@H](Cc3ccc(-c4ccccc4)cc3)NC(=O)[C@H](Cc3ccc(C(=O)O)cc3)NC(=O)[C@H](Cc3cccc(C)c3)NC(=O)[C@H](CC(=O)O)NC(=O)[C@H](Cc3ccc(OCC(=O)O)cc3)NC2=O)c1` [Example 5033] ({CH2CO}-[X3]Y(Carboxymethyl)D[Phe(3-Me)][Phe(4-COOH)][Bip]Q[NMeA][dL][Dab][Cha]V[Orn]C[Dab]-NH2; thioether N-14), the IC50 in assay [1] (μM, read-out: CBA Method 1 μM) was determined as 0.0032 µM; in assay [2] (setting [3]) it was 0.0033 µM.
Turning to `CC(C)C[C@H]1NC(=O)[C@H](C)N(C)C(=O)[C@H](CCCN)NC(=O)[C@H](Cc2ccc(-c3ccccc3)cc2)NC(=O)[C@H](Cc2ccc(-c3ccc(C(=O)O)cc3)cc2)NC(=O)[C@H](Cc2cccc(C(F)(F)F)c2)NC(=O)[C@H](CC(=O)O)NC(=O)[C@H](Cc2ccc(-c3ccc(C(=O)O)cc3)cc2)NC(=O)[C@H](Cc2ccc(OCC(=O)O)cc2)NC(=O)CSC[C@@H](C(=O)N[C@@H](CCN)C(N)=O)NC(=O)[C@H](CCCN)NC(=O)[C@H](C(C)C)NC(=O)[C@H](CC2CCCCC2)NC(=O)[C@H](CCN)NC1=O` [Example 5087] ({CH2CO}-Y(Carboxymethyl)[Bip(4'-COOH)]D[Phe(3-CF3)][Bip(4'-COOH)][Bip][Orn][NMeA][dL][Dab][Cha]V[Orn]C[Dab]-NH2; thioether N-14), the IC50 in assay [1] (μM, read-out: CBA Method 1 μM) is 0.03 µM; in assay [2] (setting [3]) it was 0.11 µM.
The like results for `Cc1cccc(C[C@@H]2NC(=O)[C@H](CC(=O)O)NC(=O)[C@H](Cc3ccc(OCC(=O)O)cc3)NC(=O)[C@H](C(C)N)NC(=O)CSC[C@@H](C(=O)N[C@@H](CCN)C(N)=O)NC(=O)[C@H](CO)NC(=O)[C@H](C(C)(C)O)NC(=O)[C@H](CC3CCCCC3)NC(=O)[C@H](CCN)NC(=O)[C@@H](CC(C)C)NC(=O)[C@H](C)N(C)C(=O)[C@H](Cc3ccc(C(N)=O)cc3)NC(=O)[C@H](Cc3ccc(-c4ccccc4)cc3)NC(=O)[C@H](Cc3ccc(OCC(=O)O)cc3)NC2=O)c1` (stereo partly drawn) [Example 5066] ({CH2CO}-[X11]Y(Carboxymethyl)D[Phe(3-Me)]Y(Carboxymethyl)[Bip][Phe(4-CONH2)][NMeA][dL][Dab][Cha][Val(3-OH)]SC[Dab]-NH2; thioether N-14) were, in that order, 0.0304 µM and 0.0028 µM.
The like results for `Cc1cccc(C[C@@H]2NC(=O)[C@H](CC(=O)O)NC(=O)[C@H](Cc3ccc(OCC(=O)O)cc3)NC(=O)[C@H](CN3CCOCC3)NC(=O)CSC[C@@H](C(=O)N[C@@H](CCN)C(N)=O)NC(=O)[C@H](CCCN)NC(=O)[C@H](C(C)C)NC(=O)[C@H](Cc3cccc(N)c3)NC(=O)[C@H](CCN)NC(=O)[C@@H](CC(C)C)NC(=O)[C@H](C)N(C)C(=O)[C@H](CCC(N)=O)NC(=O)[C@H](Cc3ccc(-c4ccccc4)cc3)NC(=O)[C@H](Cc3ccc(C(=O)O)cc3)NC2=O)c1` [Example 5040] ({CH2CO}-[Ala(morpholin-4-yl)]Y(Carboxymethyl)D[Phe(3-Me)][Phe(4-COOH)][Bip]Q[NMeA][dL][Dab][Phe(3-NH2)]V[Orn]C[Dab]-NH2; thioether N-14) were, in that order, 0.0159 µM and 0.0146 µM.
Turning to `CCCC[C@@H]1NC(=O)CSC[C@@H](C(=O)N[C@@H](CCN)C(N)=O)NC(=O)[C@H](CC(N)=O)NC(=O)[C@H](C(C)C)NC(=O)[C@H](CC2CCCCC2)NC(=O)[C@H](CCN)NC(=O)[C@@H](CC(C)C)NC(=O)[C@H](C)N(C)C(=O)[C@H](CCCN)NC(=O)[C@H](Cc2ccc(-c3ccccc3)cc2)NC(=O)[C@H](Cc2ccc(-c3ccc(C(=O)O)cc3)cc2)NC(=O)[C@H](Cc2cccc(C(F)(F)F)c2)NC(=O)[C@H](CC(=O)O)NC(=O)[C@H](Cc2ccc(-c3ccc(C(=O)O)cc3)cc2)NC1=O` [Example 5090] ({CH2CO}-[Nle][Bip(4'-COOH)]D[Phe(3-CF3)][Bip(4'-COOH)][Bip][Orn][NMeA][dL][Dab][Cha]VNC[Dab]-NH2; thioether N-14), the IC50 was found to be 0.01 µM in assay [1] (μM, read-out: CBA Method 1 μM) and 0.0087 µM in assay [2] (nM, read-out: CBA Method 2).
Take `Cc1cccc(C[C@@H]2NC(=O)[C@H](CC(=O)O)NC(=O)[C@H](Cc3ccc(OCC(=O)O)cc3)NC(=O)[C@H](CN3CCOCC3)NC(=O)CSC[C@@H](C(=O)N[C@@H](CCN)C(N)=O)NC(=O)[C@H](CCCN)NC(=O)[C@H](C(C)C)NC(=O)[C@H](CC3CCCCC3)NC(=O)[C@H](CCN)NC(=O)[C@@H](CC(C)C)NC(=O)[C@H](C)N(C)C(=O)[C@H](CCC(N)=O)NC(=O)[C@H](Cc3ccc(-c4ccccc4)cc3)NC(=O)[C@H](Cc3cccc(C#N)c3)NC2=O)c1` [Example 5030] ({CH2CO}-[Ala(morpholin-4-yl)]Y(Carboxymethyl)D[Phe(3-Me)][Phe(3-CN)][Bip]Q[NMeA][dL][Dab][Cha]V[Orn]C[Dab]-NH2; thioether N-14): the IC50 came out at 0.0047 µM in assay [1] (μM, read-out: CBA Method 1 μM) and 0.0043 µM in assay [2] (setting [3]).
The like results for `Cc1cccc(C[C@@H]2NC(=O)[C@H](CC(=O)O)NC(=O)[C@H](Cc3ccc(C(=O)O)cc3)NC(=O)[C@H](CN3CCOCC3)NC(=O)CSC[C@@H](C(=O)N[C@@H](CCN)C(N)=O)NC(=O)[C@H](CCCN)NC(=O)[C@H](C(C)C)NC(=O)[C@H](Cc3cccc(F)c3)NC(=O)[C@H](CCN)NC(=O)[C@@H](CC(C)C)NC(=O)[C@H](C)N(C)C(=O)[C@H](CCC(N)=O)NC(=O)[C@H](Cc3ccc(-c4ccccc4)cc3)NC(=O)[C@H](Cc3ccc(-c4ccc(C(=O)O)cc4)cc3)NC2=O)c1` [Example 5060] ({CH2CO}-[Ala(morpholin-4-yl)][Phe(4-COOH)]D[Phe(3-Me)][Bip(4'-COOH)][Bip]Q[NMeA][dL][Dab][Phe(3-F)]V[Orn]C[Dab]-NH2; thioether N-14) were, in that order, 0.0068 µM and 0.0093 µM.
With `CC(=O)Nc1ccc(-c2ccc(C[C@@H]3NC(=O)[C@H](Cc4cccc(C)c4)NC(=O)[C@H](CC(=O)O)NC(=O)[C@H](Cc4ccc(OCC(=O)O)cc4)NC(=O)[C@H](C(C)O)NC(=O)CSC[C@@H](C(=O)N[C@@H](CCN)C(N)=O)NC(=O)[C@H](CO)NC(=O)[C@H](C(C)(C)O)NC(=O)[C@H](CC4CCCCC4)NC(=O)[C@H](CCN)NC(=O)[C@@H](CC(C)C)NC(=O)[C@H](C)N(C)C(=O)[C@H](Cc4ccc(C(N)=O)cc4)NC(=O)[C@H](Cc4ccc(-c5ccccc5)cc4)NC3=O)cc2)cc1` (stereo partly drawn) [Example 5071] ({CH2CO}-[Thr(3ξ)]Y(Carboxymethyl)D[Phe(3-Me)][Bip(4'-NHAc)][Bip][Phe(4-CONH2)][NMeA][dL][Dab][Cha][Val(3-OH)]SC[Dab]-NH2; thioether N-14), the IC50 stood at 0.0322 µM in assay [1] (μM, read-out: CBA Method 1 μM) and 0.0261 µM in assay [2] (setting [3]).
On to `CC(C)C[C@H]1NC(=O)[C@H](C)N(C)C(=O)[C@H](CCCN)NC(=O)[C@H](Cc2ccc(-c3ccccc3)cc2)NC(=O)[C@H](Cc2ccc(-c3ccc(C(=O)O)cc3)cc2)NC(=O)[C@H](Cc2cccc(C(F)(F)F)c2)NC(=O)[C@H](CC(=O)O)NC(=O)[C@H](Cc2ccc(-c3ccc(C(=O)O)cc3)cc2)NC(=O)[C@H](Cc2ccc(OCC(=O)O)cc2)NC(=O)CSC[C@@H](C(=O)N[C@@H](CCN)C(N)=O)NC(=O)[C@H](CC(N)=O)NC(=O)[C@H](C(C)C)NC(=O)[C@H](CC2CCCCC2)NC(=O)[C@H](CCN)NC1=O` [Example 5086] ({CH2CO}-Y(Carboxymethyl)[Bip(4'-COOH)]D[Phe(3-CF3)][Bip(4'-COOH)][Bip][Orn][NMeA][dL][Dab][Cha]VNC[Dab]-NH2; thioether N-14), for which the IC50 was found to be 0.0055 µM in assay [1] (nM, read-out: CBA Method 1) and 0.0099 µM in assay [2] (nM, read-out: CBA Method 2).
For `Cc1cccc(C[C@@H]2NC(=O)[C@H](CC(=O)O)NC(=O)[C@H](Cc3ccc(C(=O)O)cc3)NC(=O)[C@H](CC(C)C)NC(=O)CSC[C@@H](C(=O)N[C@@H](CCN)C(N)=O)NC(=O)[C@H](CCCN)NC(=O)[C@H](C(C)C)NC(=O)[C@H](CC3CCCCC3)NC(=O)[C@H](CCN)NC(=O)[C@@H](CC(C)C)NC(=O)[C@H](C)N(C)C(=O)[C@H](CCC(N)=O)NC(=O)[C@H](Cc3ccc(-c4ccccc4)cc3)NC(=O)[C@H](Cc3ccc(-c4ccc(C(=O)O)cc4)cc3)NC2=O)c1` [Example 5063] ({CH2CO}-L[Phe(4-COOH)]D[Phe(3-Me)][Bip(4'-COOH)][Bip]Q[NMeA][dL][Dab][Cha]V[Orn]C[Dab]-NH2; thioether N-14), the IC50 in assay [1] (μM, read-out: CBA Method 1 μM) came to 0.0054 µM; in assay [2] (setting [3]), 0.0052 µM.
The corresponding values for `Cc1cccc(C[C@@H]2NC(=O)[C@H](CC(=O)O)NC(=O)[C@H](Cc3ccc(OCC(=O)O)cc3)NC(=O)[C@H](CN3CCOCC3)NC(=O)CSC[C@@H](C(=O)N[C@@H](CCN)C(N)=O)NC(=O)[C@H](CCCN)NC(=O)[C@H](C(C)C)NC(=O)[C@H](Cc3ccccn3)NC(=O)[C@H](CCN)NC(=O)[C@@H](CC(C)C)NC(=O)[C@H](C)N(C)C(=O)[C@H](CCC(N)=O)NC(=O)[C@H](Cc3ccc(-c4ccccc4)cc3)NC(=O)[C@H](Cc3ccc(C(=O)O)cc3)NC2=O)c1` [Example 5038] ({CH2CO}-[Ala(morpholin-4-yl)]Y(Carboxymethyl)D[Phe(3-Me)][Phe(4-COOH)][Bip]Q[NMeA][dL][Dab][2Pal]V[Orn]C[Dab]-NH2; thioether N-14) are 0.0425 µM and 0.0171 µM.
